{"source": "patent US10525046B2", "about": "(ACADIA Pharmaceuticals Inc., priority 2003, dated 2020)", "key": {"human 5HT2A receptors": {"molecular_target": "human 5HT2A receptors (Homo sapiens, UniProt P28223)", "sequence (P28223 whole entry)": "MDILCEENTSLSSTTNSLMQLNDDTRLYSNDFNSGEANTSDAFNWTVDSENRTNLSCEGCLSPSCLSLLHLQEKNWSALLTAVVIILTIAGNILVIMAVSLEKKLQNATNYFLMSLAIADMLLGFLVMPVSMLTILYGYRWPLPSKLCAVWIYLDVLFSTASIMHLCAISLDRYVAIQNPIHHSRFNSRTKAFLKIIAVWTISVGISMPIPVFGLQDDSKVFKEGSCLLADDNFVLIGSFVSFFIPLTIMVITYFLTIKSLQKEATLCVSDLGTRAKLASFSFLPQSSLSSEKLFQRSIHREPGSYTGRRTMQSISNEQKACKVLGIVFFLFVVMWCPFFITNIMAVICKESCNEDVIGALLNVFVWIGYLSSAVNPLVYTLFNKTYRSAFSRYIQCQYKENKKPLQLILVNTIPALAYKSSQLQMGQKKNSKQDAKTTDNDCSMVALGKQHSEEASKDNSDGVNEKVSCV"}, "human D2 receptors [1]": {"molecular_target": "T1, human D2 receptors (Homo sapiens, UniProt P14416)", "T1 sequence (P14416 1-414 isoform P14416-2)": "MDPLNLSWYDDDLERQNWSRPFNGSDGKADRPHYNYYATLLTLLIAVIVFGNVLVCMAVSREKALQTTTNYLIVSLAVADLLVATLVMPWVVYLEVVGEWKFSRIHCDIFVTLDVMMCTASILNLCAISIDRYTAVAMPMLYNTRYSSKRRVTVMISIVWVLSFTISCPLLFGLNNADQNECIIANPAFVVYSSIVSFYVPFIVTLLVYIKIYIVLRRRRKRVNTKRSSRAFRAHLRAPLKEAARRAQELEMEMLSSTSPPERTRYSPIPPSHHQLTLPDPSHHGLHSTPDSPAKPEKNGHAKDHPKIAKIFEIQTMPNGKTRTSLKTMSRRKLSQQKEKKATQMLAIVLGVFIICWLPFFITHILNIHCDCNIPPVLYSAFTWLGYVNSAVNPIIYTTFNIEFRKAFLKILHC", "settings": "R-SAT agonist; short form of the D2 receptor; +/− standard deviation of three to eight determinations"}, "[2]": {"test_system": "hyperactivity induced by d-amphetamine", "assay": "Amphetamine induced hyperactivity", "format": "in vivo", "settings": "mice"}, "human D2 receptors [3]": {"molecular_target": "T1, human D2 receptors", "assay": "cell-based"}, "spontaneous locomotion": {"test_system": "spontaneous locomotion", "assay": "Spontaneous locomotion", "format": "in vivo", "settings": "s.c.; rats (FIG. 2A)", "source_text": "(§1) . In FIG. 2A and 2B, asterisks indicate statistical significance (p<0.05) compared to respective vehicle control. […]"}, "[4]": {"test_system": "hyperactivity induced by MK-801 (dizocilpine)", "assay": "MK-801 induced hyperactivity", "format": "in vivo, rats", "source_text": "as §1"}, "[5]": {"test_system": "levodopa-associated dyskinesias and motor response fluctuations", "assay": "Double blind, placebo controlled study in parkinsonian patients", "format": "in vivo", "settings": "Patient Group II", "procedure": "[…]. […] […]. The compound of formula (I) is administered once daily for four weeks, with the dose escalating once each week. Assessments are made on the first day of each dose escalation.\nThe study is conducted on an […].\nPatients who participate in the study have particular characteristics. The patients are between 30 and 80 years of age, inclusively. The patients had been diagnosed with idiopathic Parkinson's disease based on the presence of a characteristic clinical history and neurological findings.\nThe sample size is calculated for the primary endpoint: the Unified Parkinson's Disease Rating Scale (UPDRS) part III motor examination. […]. […] In this phase 2 study we will accept a two-sided alpha at a 0.05 significance level. Four patients will be added for the placebo group, totaling 21 subjects enrolled in the study.\nPatients enter the levodopa infusion optimal rate determination (dose finding) portion of the study as soon as all prohibited medication has been withdrawn for at least four weeks.\nIntravenous infusion of levodopa is conducted in an in-patient ward. […]. During the first and second days of optimal rate determination, two baseline UPDRS ratings are performed prior to levodopa infusion. […] Dyskinesia severity is similar to that experienced with each patient's usual therapeutic regimen. Levodopa will be administered by means of an indwelling intravenous catheter. The initial infusion rate of levodopa will not exceed 80 mg/hr.\nLevodopa infusions will ordinarily last up to 8 hours, but may be continued uninterrupted for several days or be repeated on other days to obtain reliable assessment of motor function. The peripheral decarboxylase inhibitor carbidopa (50 mg, given every 3 hours) is administered orally starting at least one hour prior to intravenous administration of levodopa and continuing until levodopa effects have worn off. […]\nThroughout the study, patients are evaluated weekly for drug safety and tolerability during their inpatient admission and two weeks after treatment for an outpatient follow-up visit. […]"}, "[6]": {"test_system": "remaining monoaminergic receptor subtypes", "assay": "Intrinsic activity at remaining monoaminergic receptor subtypes"}, "[7]": {"test_system": "L-dopa induced dyskinesias", "assay": "L-dopa induced dyskinesia in MPTP monkeys", "settings": "s.c.; MPTP dyskinetic primates; dyskinetic movements scored as percentage of placebo (FIG. 3)"}, "[8]": {"settings": "refractory schizophrenic patients; cited from earlier work"}}}
{"molecule": "CCCN(CCC)CCc1cccc2c1CC(=O)N2", "note": "[Ropinirole]", "values": [{"measurement": "Serotonin 2A, —Log (EC50)", "setting": "human 5HT2A receptors", "result": "6.85 +/− 0.77"}, {"measurement": "Dopamine D2, —Log (EC50)", "setting": "human D2 receptors [1]", "result": "8.19 +/− 0.58"}]}
{"molecule": "O=C(CCCN1CCC(O)(c2ccc(Cl)cc2)CC1)c1ccc(F)cc1", "note": "[haloperidol, reference compound]", "values": [{"measurement": "minimally significant dose reducing amphetamine hyperactivity, in combination", "setting": "[2]; haloperidol s.c. with 10.0 mg/kg P.O. compound of formula (I)", "result": 0.03, "unit": "mg/kg"}, {"measurement": "minimally significant dose reducing amphetamine hyperactivity, alone", "setting": "[2]; s.c., 3.0 mg/kg I.P. d-amphetamine", "result": 0.1, "unit": "mg/kg"}]}
{"molecule": "CC(C)C[C@H]1C(=O)N2CCC[C@H]2[C@]2(O)O[C@](NC(=O)[C@@H]3C=C4c5cccc6[nH]c(Br)c(c56)C[C@H]4N(C)C3)(C(C)C)C(=O)N12", "note": "[Bromocriptine]", "values": [{"measurement": "EC50", "setting": "human D2 receptors [3]", "result": 0.43, "unit": "nM"}]}
{"molecule": "NCCc1ccc(O)c(O)c1", "note": "[Dopamine]", "values": [{"measurement": "Potency against serotonin 5-HT2A receptor (FIG. 1B)", "setting": "human 5HT2A receptors; R-SAT agonist, reference full agonist serotonin", "result": "no response"}]}
{"molecule": "CC(C)COc1ccc(CNC(=O)N(Cc2ccc(F)cc2)C2CCN(C)CC2)cc1", "note": "[compound of formula (I), N-(1-methylpiperidin-4-yl)-N-(4-flourophenylmethyl)-N′-(4-(2-methylpropyloxy)phenylmethyl)carbamide]", "values": [{"measurement": "doses reducing spontaneous locomotion", "setting": "spontaneous locomotion", "result": "≥ 3", "unit": "mg/kg"}, {"measurement": "effect on amphetamine hyperactivity, administered alone", "setting": "[2]; 10.0 mg/kg P.O. and below, 3.0 mg/kg I.P. d-amphetamine", "result": "did not reduce hyperactivity"}, {"measurement": "amphetamine hyperactivity with the combination", "setting": "[2]; 10.0 mg/kg P.O. compound of formula (I) combined with s.c. haloperidol", "result": "completely reversed"}, {"measurement": "effect on MK-801 hyperactivity", "setting": "[4]; i.p. administration, 1 mg/kg", "result": "attenuated MK-801 hyperactivity"}, {"measurement": "minimum effective dose attenuating MK-801 hyperactivity", "setting": "[4]; p.o., rats (FIG. 2B)", "result": 10, "unit": "mg/kg"}, {"measurement": "minimum effective dose attenuating MK-801 hyperactivity", "setting": "[4]; s.c., rats (FIG. 2A)", "result": 1, "unit": "mg/kg"}, {"measurement": "effect on the beneficial effects of levodopa on parkinsonian symptoms", "setting": "[5]; oral", "result": "potentiates the benefical effects of levodopa on parkinsonian symptoms"}, {"measurement": "levodopa-associated dyskinesias and motor response fluctuations", "setting": "[5]; oral once daily, 30 to 300 mg escalating weekly", "result": "show a reducing in levodopa-associated dyskinesias and motor response fluctuations"}, {"measurement": "tolerability", "setting": "[5]; oral, 30 to 300 mg", "result": "tolerate the compound of formula (I) at all doses administered"}, {"measurement": "intrinsic activity at remaining monoaminergic receptor subtypes", "setting": "[6]", "result": "lacks intrinsic activity"}, {"measurement": "effect on L-dopa induced dyskinesias", "setting": "[7]", "result": "significantly diminish L-dopa induced dyskinesias in a dose dependent manner"}]}
{"molecule": "CN1CCN(C2=Nc3cc(Cl)ccc3Nc3ccccc32)CC1", "note": "[Clozapine]", "values": [{"measurement": "average serum levels associated with therapeutic response", "setting": "[8]", "result": "≥ 250", "unit": "ng/mL"}]}
